Results: a compilation of properties of binary mixtures (doi:10.1016/j.molliq.2021.115373)

Experiment: xn = mol fraction of the nth substance listed
Details: 101 kPa

## CC[N+](C)(CC)CCOC.O=S(=O)([N-]S(=O)(=O)C(F)(F)F)C(F)(F)F + O=C1CCCO1
288.15 K, x1 = 0.3003
  electrical conductivity: 0.818 S/m
  viscosity: 14.42 mPa·s
288.15 K, x1 = 0.4007
  electrical conductivity: 0.638 S/m
  viscosity: 21.86 mPa·s
288.15 K, x1 = 0.6999
  electrical conductivity: 0.342 S/m
  viscosity: 87.8 mPa·s
288.15 K, x1 = 0.8001
  electrical conductivity: 0.271 S/m
  viscosity: 118.2 mPa·s
288.15 K, x1 = 0.9003
  electrical conductivity: 0.189 S/m
  viscosity: 159.3 mPa·s
288.15 K, x1 = 1
  electrical conductivity: 0.147 S/m
  viscosity: 225 mPa·s
293.15 K, x1 = 0.2006
  electrical conductivity: 1.16 S/m
  viscosity: 7.44 mPa·s
293.15 K, x1 = 0.4007
  electrical conductivity: 0.737 S/m
  viscosity: 18.34 mPa·s
293.15 K, x1 = 0.6002
  electrical conductivity: 0.508 S/m
  viscosity: 49.4 mPa·s
293.15 K, x1 = 0.6999
  electrical conductivity: 0.429 S/m
  viscosity: 67.7 mPa·s
293.15 K, x1 = 0.8001
  electrical conductivity: 0.336 S/m
  viscosity: 90 mPa·s
293.15 K, x1 = 0.9003
  electrical conductivity: 0.246 S/m
  viscosity: 118.6 mPa·s
298.15 K, x1 = 0.2006
  electrical conductivity: 1.29 S/m
  viscosity: 6.32 mPa·s
298.15 K, x1 = 0.3003
  electrical conductivity: 1.03 S/m
  viscosity: 10.43 mPa·s
298.15 K, x1 = 0.4998
  electrical conductivity: 0.688 S/m
  viscosity: 24.17 mPa·s
298.15 K, x1 = 0.6002
  electrical conductivity: 0.595 S/m
  viscosity: 37.96 mPa·s
298.15 K, x1 = 0.6999
  electrical conductivity: 0.504 S/m
  viscosity: 51.5 mPa·s
298.15 K, x1 = 0.8001
  electrical conductivity: 0.413 S/m
  viscosity: 68.2 mPa·s
298.15 K, x1 = 0.9003
  electrical conductivity: 0.31 S/m
  viscosity: 88.5 mPa·s
298.15 K, x1 = 1
  electrical conductivity: 0.24 S/m
  viscosity: 119.2 mPa·s
303.15 K, x1 = 0.1004
  electrical conductivity: 1.41 S/m
  viscosity: 2.972 mPa·s
303.15 K, x1 = 0.2006
  electrical conductivity: 1.45 S/m
  viscosity: 5.4 mPa·s
303.15 K, x1 = 0.3003
  electrical conductivity: 1.16 S/m
  viscosity: 8.87 mPa·s
303.15 K, x1 = 0.4007
  electrical conductivity: 0.956 S/m
  viscosity: 12.54 mPa·s
303.15 K, x1 = 0.4998
  electrical conductivity: 0.791 S/m
  viscosity: 19.36 mPa·s
303.15 K, x1 = 0.6002
  electrical conductivity: 0.688 S/m
  viscosity: 29.46 mPa·s
303.15 K, x1 = 0.8001
  electrical conductivity: 0.488 S/m
  viscosity: 51.5 mPa·s
303.15 K, x1 = 0.9003
  electrical conductivity: 0.382 S/m
  viscosity: 67.4 mPa·s
308.15 K, x1 = 0.1004
  electrical conductivity: 1.52 S/m
  viscosity: 2.401 mPa·s
308.15 K, x1 = 0.2006
  electrical conductivity: 1.59 S/m
  viscosity: 4.634 mPa·s
308.15 K, x1 = 0.6002
  electrical conductivity: 0.786 S/m
  viscosity: 23.31 mPa·s
308.15 K, x1 = 0.6999
  electrical conductivity: 0.693 S/m
  viscosity: 30.64 mPa·s
308.15 K, x1 = 0.8001
  electrical conductivity: 0.576 S/m
  viscosity: 39.71 mPa·s
308.15 K, x1 = 1
  electrical conductivity: 0.365 S/m
  viscosity: 67.7 mPa·s
313.15 K, x1 = 0.3003
  electrical conductivity: 1.43 S/m
  viscosity: 6.47 mPa·s
313.15 K, x1 = 0.4007
  electrical conductivity: 1.21 S/m
  viscosity: 8.94 mPa·s
313.15 K, x1 = 0.4998
  electrical conductivity: 1.02 S/m
  viscosity: 12.56 mPa·s
313.15 K, x1 = 0.6002
  electrical conductivity: 0.898 S/m
  viscosity: 18.36 mPa·s
313.15 K, x1 = 0.6999
  electrical conductivity: 0.805 S/m
  viscosity: 24.16 mPa·s
313.15 K, x1 = 0.9003
  electrical conductivity: 0.545 S/m
  viscosity: 39.51 mPa·s
313.15 K, x1 = 1
  electrical conductivity: 0.44 S/m
  viscosity: 53 mPa·s
318.15 K, x1 = 0.1004
  electrical conductivity: 1.77 S/m
  viscosity: 1.55 mPa·s
318.15 K, x1 = 0.2006
  electrical conductivity: 1.92 S/m
  viscosity: 3.357 mPa·s
318.15 K, x1 = 0.3003
  electrical conductivity: 1.57 S/m
  viscosity: 5.5 mPa·s
318.15 K, x1 = 0.4007
  electrical conductivity: 1.35 S/m
  viscosity: 7.5 mPa·s
318.15 K, x1 = 0.4998
  electrical conductivity: 1.15 S/m
  viscosity: 10.47 mPa·s
318.15 K, x1 = 0.6999
  electrical conductivity: 0.916 S/m
  viscosity: 19.03 mPa·s
318.15 K, x1 = 0.8001
  electrical conductivity: 0.782 S/m
  viscosity: 24.04 mPa·s
318.15 K, x1 = 0.9003
  electrical conductivity: 0.645 S/m
  viscosity: 30.79 mPa·s
318.15 K, x1 = 1
  electrical conductivity: 0.521 S/m
  viscosity: 40.98 mPa·s
323.15 K, x1 = 0.1004
  electrical conductivity: 1.89 S/m
  viscosity: 1.264 mPa·s
323.15 K, x1 = 0.3003
  electrical conductivity: 1.72 S/m
  viscosity: 4.76 mPa·s
323.15 K, x1 = 0.6999
  electrical conductivity: 1.03 S/m
  viscosity: 14.91 mPa·s
323.15 K, x1 = 0.8001
  electrical conductivity: 0.888 S/m
  viscosity: 18.65 mPa·s
323.15 K, x1 = 0.9003
  electrical conductivity: 0.739 S/m
  viscosity: 24.72 mPa·s
323.15 K, x1 = 1
  electrical conductivity: 0.609 S/m
  viscosity: 33.06 mPa·s
328.15 K, x1 = 0.1004
  electrical conductivity: 2.02 S/m
  viscosity: 1.025 mPa·s
328.15 K, x1 = 0.2006
  electrical conductivity: 2.22 S/m
  viscosity: 2.567 mPa·s
328.15 K, x1 = 0.3003
  electrical conductivity: 1.88 S/m
  viscosity: 4.154 mPa·s
328.15 K, x1 = 0.4007
  electrical conductivity: 1.64 S/m
  viscosity: 5.51 mPa·s
328.15 K, x1 = 0.4998
  electrical conductivity: 1.44 S/m
  viscosity: 7.25 mPa·s
328.15 K, x1 = 0.6999
  electrical conductivity: 1.15 S/m
  viscosity: 11.99 mPa·s
328.15 K, x1 = 0.8001
  electrical conductivity: 1 S/m
  viscosity: 14.94 mPa·s
328.15 K, x1 = 0.9003
  electrical conductivity: 0.844 S/m
  viscosity: 19.43 mPa·s
333.15 K, x1 = 0.1004
  electrical conductivity: 2.15 S/m
  viscosity: 0.838 mPa·s
333.15 K, x1 = 0.2006
  electrical conductivity: 2.38 S/m
  viscosity: 2.237 mPa·s
333.15 K, x1 = 0.3003
  electrical conductivity: 2.07 S/m
  viscosity: 3.578 mPa·s
333.15 K, x1 = 0.4998
  electrical conductivity: 1.59 S/m
  viscosity: 6.07 mPa·s
333.15 K, x1 = 0.6002
  electrical conductivity: 1.42 S/m
  viscosity: 7.65 mPa·s
333.15 K, x1 = 0.6999
  electrical conductivity: 1.29 S/m
  viscosity: 9.72 mPa·s
333.15 K, x1 = 0.8001
  electrical conductivity: 1.12 S/m
  viscosity: 11.69 mPa·s
333.15 K, x1 = 0.9003
  electrical conductivity: 0.956 S/m
  viscosity: 16.5 mPa·s
338.15 K, x1 = 0.1004
  electrical conductivity: 2.27 S/m
  viscosity: 0.686 mPa·s
338.15 K, x1 = 0.2006
  electrical conductivity: 2.56 S/m
  viscosity: 1.957 mPa·s
338.15 K, x1 = 0.3003
  electrical conductivity: 2.24 S/m
  viscosity: 3.117 mPa·s
338.15 K, x1 = 0.4007
  electrical conductivity: 1.99 S/m
  viscosity: 4.059 mPa·s
338.15 K, x1 = 0.4998
  electrical conductivity: 1.75 S/m
  viscosity: 5.21 mPa·s
338.15 K, x1 = 0.6002
  electrical conductivity: 1.56 S/m
  viscosity: 6.3 mPa·s
338.15 K, x1 = 0.6999
  electrical conductivity: 1.41 S/m
  viscosity: 7.76 mPa·s
338.15 K, x1 = 0.8001
  electrical conductivity: 1.24 S/m
  viscosity: 9.36 mPa·s
338.15 K, x1 = 0.9003
  electrical conductivity: 1.07 S/m
  viscosity: 13.36 mPa·s
338.15 K, x1 = 1
  electrical conductivity: 0.935 S/m
  viscosity: 17.49 mPa·s
343.15 K, x1 = 0.1004
  electrical conductivity: 2.41 S/m
  viscosity: 0.558 mPa·s
343.15 K, x1 = 0.2006
  electrical conductivity: 2.74 S/m
  viscosity: 1.718 mPa·s
343.15 K, x1 = 0.4007
  electrical conductivity: 2.17 S/m
  viscosity: 3.53 mPa·s
343.15 K, x1 = 0.6002
  electrical conductivity: 1.72 S/m
  viscosity: 4.94 mPa·s
343.15 K, x1 = 0.6999
  electrical conductivity: 1.54 S/m
  viscosity: 6.16 mPa·s
343.15 K, x1 = 0.8001
  electrical conductivity: 1.37 S/m
  viscosity: 7.56 mPa·s
343.15 K, x1 = 0.9003
  electrical conductivity: 1.2 S/m
  viscosity: 10.95 mPa·s
343.15 K, x1 = 1
  electrical conductivity: 1.05 S/m
  viscosity: 14.91 mPa·s
348.15 K, x1 = 0.1004
  electrical conductivity: 2.56 S/m
  viscosity: 0.458 mPa·s
348.15 K, x1 = 0.2006
  electrical conductivity: 2.91 S/m
  viscosity: 1.517 mPa·s
348.15 K, x1 = 0.3003
  electrical conductivity: 2.63 S/m
  viscosity: 2.346 mPa·s
348.15 K, x1 = 0.4998
  electrical conductivity: 2.12 S/m
  viscosity: 3.777 mPa·s
348.15 K, x1 = 0.6002
  electrical conductivity: 1.88 S/m
  viscosity: 4.265 mPa·s
348.15 K, x1 = 0.8001
  electrical conductivity: 1.5 S/m
  viscosity: 6.13 mPa·s
348.15 K, x1 = 1
  electrical conductivity: 1.18 S/m
  viscosity: 12.3 mPa·s
353.15 K, x1 = 0.1004
  electrical conductivity: 2.7 S/m
  viscosity: 0.392 mPa·s
353.15 K, x1 = 0.4007
  electrical conductivity: 2.55 S/m
  viscosity: 2.74 mPa·s
353.15 K, x1 = 0.4998
  electrical conductivity: 2.3 S/m
  viscosity: 3.376 mPa·s
353.15 K, x1 = 0.6999
  electrical conductivity: 1.84 S/m
  viscosity: 4.04 mPa·s
353.15 K, x1 = 0.8001
  electrical conductivity: 1.64 S/m
  viscosity: 4.81 mPa·s
353.15 K, x1 = 1
  electrical conductivity: 1.31 S/m
  viscosity: 10.28 mPa·s
